Consider four compounds from US20230233569A1 (Revolution Medicines, Inc., priority 2020, published 2023).

Bounds are passed on as bounds.

One assay addresses KRAS G12C (Homo sapiens, UniProt P01116+P62937, G12C). Kind of assay: Ras-Raf disruption / FRET / MOA assay (BRAF RBD). It counts as biochemical. As to conditions: KRAS G12C FRET data IC50, Ras-Raf disruption, with Cyclophilin A. In a few lines: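 His6-K-Ras G12C-GMPPNP (12.5 nM), GST-BRAF RBD (50 nM) and tagless Cyclophilin A (25 μM) incubated 3 h at 25 °C with compound (10-point 3-fold series from 30 μM), pH 7.3 HEPES buffer. Anti-His Eu/anti-GST APC added for 1.5 h; decreased TR-FRET ratio vs DMSO gives IC50.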

Assay [1] relates to AsPC-1 (K-Ras G12D). Kind of assay: CellTiter-Glo cell viability assay. It counts as cell-based. As to conditions: Homo sapiens, ASPC1, 120 h, read-out: AsPC-1 Cell Viability assay data IC50, K-Ras G12D, 5-day treatment. The procedure: Determination of Cell Viability in RAS Mutant Cancer Cell Lines
Protocol: CellTiter-Glo® Cell Viability Assay
Note—The following protocol describes a procedure for monitoring cell viability of K-Ras mutant cancer cell lines in response to a compound of the invention. Other RAS isoforms may be employed, though the number of cells to be seeded will vary based on cell line used.
Test compounds (132.5 nL) were directly dispensed into the assay plates containing cells. […] On day 5, assay plates and their contents were equilibrated to room temperature for approximately 30 minutes. […] Luminescence was measured using the PerkinElmer Enspire. Data were normalized by the following: (Sample signal/Avg. DMSO)*100. The data were fit using a four-parameter logistic fit.

The next assay deals with KRAS WT (Homo sapiens, UniProt P01116+P62937). Kind of assay: Ras-Raf disruption / FRET / MOA assay (BRAF RBD). As to conditions: KRAS WT FRET data IC50, Ras-Raf disruption, with Cyclophilin A. It counts as biochemical. In a few lines: (§1)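 TR-FRET in 25 mM HEPES pH 7.3, 100 mM NaCl, 5 mM MgCl2, 0.1% BSA, 0.002% Tween20 with 25 μM Cyclophilin A, 12.5 nM His6-Ras-GMPPNP, 50 nM GST-BRAF RBD; compound 10-point 3-fold series from 30 μM. After 3 h at 25 °C, Eu anti-His/APC anti-GST added for 1.5 h; IC50 from ratio decrease versus DMSO.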

The target of a further assay is NRAS Q61R (Homo sapiens, UniProt P01111+P62937, Q61R). The assay can be described thus: Ras-Raf disruption / FRET / MOA assay (BRAF RBD). It counts as biochemical. A digest of the protocol: as §1
The target of a further assay is KRAS Q61H (Homo sapiens, UniProt P01116+P62937, Q61H). Kind of assay: Ras-Raf disruption / FRET / MOA assay (BRAF RBD). The class given is biochemical. In a few lines: as §1
The target in another assay is KRAS G13C (Homo sapiens, UniProt P01116+P62937, G13C). The assay can be described thus: Ras-Raf disruption / FRET / MOA assay (BRAF RBD). The class given is biochemical. As to conditions: KRAS G13C FRET data IC50, Ras-Raf disruption, with Cyclophilin A. In a few lines: as §1
The target in another assay is NRAS WT (Homo sapiens, UniProt P01111+P62937). The assay can be described thus: Ras-Raf disruption / FRET / MOA assay (BRAF RBD). The class given is biochemical. A digest of the protocol: as §1
The target of a further assay is KRAS G13D (Homo sapiens, UniProt P01116+P62937, G13D). Kind of assay: Ras-Raf disruption / FRET / MOA assay (BRAF RBD). The class given is biochemical. As to conditions: KRAS G13D FRET data IC50, Ras-Raf disruption, with Cyclophilin A. A digest of the protocol: as §1
In the next assay the target is NRAS G12C (Homo sapiens, UniProt P01111+P62937, G12C). Kind of assay: Ras-Raf disruption / FRET / MOA assay (BRAF RBD). The class given is biochemical. As to conditions: NRAS G12C FRET data IC50, NRAS G12C. A digest of the protocol: as §1
Another assay addresses KRAS G12S (Homo sapiens, UniProt P01116+P62937, G12S). The assay can be described thus: Ras-Raf disruption / FRET / MOA assay (BRAF RBD). The class given is biochemical. As to conditions: KRAS G12S FRET data IC50, Ras-Raf disruption, with Cyclophilin A. A digest of the protocol:
as §1

For another assay, the target named is KRAS G12V (Homo sapiens, UniProt P01116+P62937, G12V). The assay can be described thus: Ras-Raf disruption / FRET / MOA assay (BRAF RBD). The class given is biochemical. As to conditions: KRAS G12V FRET data IC50, Ras-Raf disruption, with Cyclophilin A. In a few lines:
as §1

Another assay concerns the target KRAS G12D (Homo sapiens, UniProt P01116+P62937, G12D). The assay can be described thus: Ras-Raf disruption / FRET / MOA assay (BRAF RBD). The class given is biochemical. As to conditions: KRAS G12D FRET data IC50, Ras-Raf disruption, with Cyclophilin A. A digest of the protocol: as §1
A further assay has as its target NRAS Q61K (Homo sapiens, UniProt P01111+P62937, Q61K). Kind of assay: Ras-Raf disruption / FRET / MOA assay (BRAF RBD). It counts as biochemical. A digest of the protocol:
as §1

For assay [2], the system named is AsPC-1 (K-Ras G12D). The assay can be described thus: Potency assay: pERK. It counts as cell-based. As to conditions: Homo sapiens, ASPC1, read-out: pERK EC50.

Usually IC50 stands for the concentration needed to halve the response being measured. Usually EC50 stands for the midpoint of the concentration-response curve.

NRAS G12C, sequence (P01111 whole entry G12C): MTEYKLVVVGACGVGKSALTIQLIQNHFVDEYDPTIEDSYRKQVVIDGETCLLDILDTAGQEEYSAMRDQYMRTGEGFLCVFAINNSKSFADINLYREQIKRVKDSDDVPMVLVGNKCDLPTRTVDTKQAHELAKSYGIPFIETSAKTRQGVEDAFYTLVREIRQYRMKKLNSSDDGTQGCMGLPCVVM
NRAS G12C, sequence (P62937 whole entry): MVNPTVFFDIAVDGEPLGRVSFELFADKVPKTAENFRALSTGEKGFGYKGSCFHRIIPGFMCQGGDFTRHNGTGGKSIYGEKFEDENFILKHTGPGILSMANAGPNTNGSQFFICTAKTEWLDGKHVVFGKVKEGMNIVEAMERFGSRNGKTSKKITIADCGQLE
KRAS G12S, sequence (P01116 1-169 isoform P01116-2 G12S limits assumed): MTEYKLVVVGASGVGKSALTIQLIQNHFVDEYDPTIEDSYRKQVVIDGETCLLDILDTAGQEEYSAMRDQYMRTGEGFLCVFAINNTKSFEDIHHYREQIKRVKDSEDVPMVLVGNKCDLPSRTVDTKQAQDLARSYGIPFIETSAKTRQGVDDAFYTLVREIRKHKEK
KRAS G12S, sequence (P62937 whole entry): as the sequence (P62937 whole entry) above
KRAS WT, sequence (P01116 1-169 isoform P01116-2 limits assumed): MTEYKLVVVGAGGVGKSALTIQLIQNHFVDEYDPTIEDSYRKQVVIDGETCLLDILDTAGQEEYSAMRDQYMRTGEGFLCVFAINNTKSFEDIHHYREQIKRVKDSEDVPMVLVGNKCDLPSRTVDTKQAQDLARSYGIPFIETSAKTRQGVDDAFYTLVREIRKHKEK
KRAS WT, sequence (P62937 whole entry): as the sequence (P62937 whole entry) above
KRAS G12D, sequence (P01116 1-169 isoform P01116-2 G12D limits assumed): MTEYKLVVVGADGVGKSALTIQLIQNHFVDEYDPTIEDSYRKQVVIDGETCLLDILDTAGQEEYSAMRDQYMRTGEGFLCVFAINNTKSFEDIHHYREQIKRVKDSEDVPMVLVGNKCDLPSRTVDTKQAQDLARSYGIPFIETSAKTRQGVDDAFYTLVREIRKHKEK
KRAS G12D, sequence (P62937 whole entry): as the sequence (P62937 whole entry) above
KRAS G13D, sequence (P01116 1-169 isoform P01116-2 G13D limits assumed): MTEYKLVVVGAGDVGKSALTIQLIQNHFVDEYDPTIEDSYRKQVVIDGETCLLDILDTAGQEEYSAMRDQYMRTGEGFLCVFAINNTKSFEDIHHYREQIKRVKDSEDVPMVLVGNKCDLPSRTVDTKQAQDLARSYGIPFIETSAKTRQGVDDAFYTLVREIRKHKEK
KRAS G13D, sequence (P62937 whole entry): as the sequence (P62937 whole entry) above
KRAS G13C, sequence (P01116 1-169 isoform P01116-2 G13C limits assumed): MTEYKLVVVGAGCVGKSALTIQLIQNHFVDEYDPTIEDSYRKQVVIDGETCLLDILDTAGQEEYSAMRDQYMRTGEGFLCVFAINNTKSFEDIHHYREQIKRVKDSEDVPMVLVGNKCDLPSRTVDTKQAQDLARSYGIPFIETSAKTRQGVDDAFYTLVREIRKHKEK
KRAS G13C, sequence (P62937 whole entry): as the sequence (P62937 whole entry) above
NRAS Q61K, sequence (P01111 whole entry Q61K): as the sequence (P01111 whole entry G12C) above, with C12G, Q61K counted along it
NRAS Q61K, sequence (P62937 whole entry): as the sequence (P62937 whole entry) above
KRAS G12C, sequence (P01116 1-169 isoform P01116-2 G12C limits assumed): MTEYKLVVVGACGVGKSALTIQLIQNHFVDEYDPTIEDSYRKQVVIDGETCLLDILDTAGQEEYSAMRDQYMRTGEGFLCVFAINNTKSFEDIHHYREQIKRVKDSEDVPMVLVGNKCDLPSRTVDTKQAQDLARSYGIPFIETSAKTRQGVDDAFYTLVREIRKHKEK
KRAS G12C, sequence (P62937 whole entry): as the sequence (P62937 whole entry) above
KRAS G12V, sequence (P01116 1-169 isoform P01116-2 G12V limits assumed): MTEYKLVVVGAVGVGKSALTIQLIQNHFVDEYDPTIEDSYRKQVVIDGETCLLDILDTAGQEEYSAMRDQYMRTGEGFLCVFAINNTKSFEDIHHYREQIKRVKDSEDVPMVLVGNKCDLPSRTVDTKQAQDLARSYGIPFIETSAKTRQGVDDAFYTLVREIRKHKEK
KRAS G12V, sequence (P62937 whole entry): as the sequence (P62937 whole entry) above
NRAS WT, sequence (P01111 whole entry): as the sequence (P01111 whole entry G12C) above, with C12G counted along it
NRAS WT, sequence (P62937 whole entry): as the sequence (P62937 whole entry) above
KRAS Q61H, sequence (P01116 1-169 isoform P01116-2 Q61H limits assumed): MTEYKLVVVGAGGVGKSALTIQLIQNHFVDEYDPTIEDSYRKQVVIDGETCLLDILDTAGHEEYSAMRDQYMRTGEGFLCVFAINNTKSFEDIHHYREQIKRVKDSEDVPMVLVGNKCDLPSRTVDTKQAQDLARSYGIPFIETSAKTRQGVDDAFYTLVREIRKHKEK
KRAS Q61H, sequence (P62937 whole entry): as the sequence (P62937 whole entry) above
NRAS Q61R, sequence (P01111 whole entry Q61R): as the sequence (P01111 whole entry G12C) above, with C12G, Q61R counted along it
NRAS Q61R, sequence (P62937 whole entry): as the sequence (P62937 whole entry) above

Consider `CCn1c(-c2cccnc2[C@H](C)OC)c2c3cc(ccc31)-c1cc(O)cc(c1)C[C@H](NC(=O)[C@H](C(C)C)N(C)C(=O)CN(C)C(=O)[C@H]1N[C@H]1C1COC1)C(=O)N1CCC[C@H](N1)C(=O)OCC(C)(C)C2` [Example 282], for which the IC50 is 0.01 to 0.1 µM against KRAS G12C; 1 to 10 µM with AsPC-1 (K-Ras G12D) [1]; 0.01 to 0.1 µM against KRAS WT; 0.1 to 1 µM against NRAS Q61R; 0.01 to 0.1 µM against KRAS Q61H; below 0.01 µM at KRAS G13C. Besides, the IC50 against NRAS WT, against KRAS G13D, on NRAS G12C, against KRAS G12S, against KRAS G12V and against KRAS G12D was 0.01 to 0.1 µM throughout. This compound also gave an IC50 on NRAS Q61K of 0.1 to 1 µM. Besides, in the assay with AsPC-1 (K-Ras G12D) [2], the EC50 was below 5 µM.
Turning to `CCn1c(-c2cccnc2[C@H](C)OC)c2c3cc(ccc31)-c1cc(O)cc(c1)C[C@H](NC(=O)[C@H](C(C)C)N(C)C(=O)CN(C)C(=O)[C@@H]1CN1CC(=O)N(C)C)C(=O)N1CCC[C@H](N1)C(=O)OCC(C)(C)C2` (some centres unmarked) [Example 271], the IC50 on KRAS G12C was below 0.01 µM; with AsPC-1 (K-Ras G12D) [1], above 10 µM; at KRAS WT, 0.01 to 0.1 µM; against NRAS Q61R, 0.1 to 1 µM; against KRAS Q61H, 0.01 to 0.1 µM; on KRAS G13C, 0.01 to 0.1 µM. For the same compound, the IC50 against NRAS WT was 0.1 to 1 µM; at KRAS G13D, 0.1 to 1 µM; against NRAS G12C, below 0.01 µM; against KRAS G12S it was 0.01 to 0.1 µM; against KRAS G12V, 0.1 to 1 µM; against KRAS G12D, 0.1 to 1 µM. The compound also had an IC50 against NRAS Q61K of 0.1 to 1 µM. Moreover, the EC50 with AsPC-1 (K-Ras G12D) [2] was below 5 µM.
On to `CCn1c(-c2cccnc2[C@H](C)OC)c2c3cc(ccc31)-c1cc(O)cc(c1)C[C@H](NC(=O)[C@H](C(C)C)N(C)C(=O)CN(C)C(=O)[C@@H]1CN1CCCN1CCCC1=O)C(=O)N1CCC[C@H](N1)C(=O)OCC(C)(C)C2` (some centres unmarked) [Example 269], for which the IC50 against KRAS G12C is below 0.01 µM; in the assay with AsPC-1 (K-Ras G12D) [1], 1 to 10 µM; at KRAS WT it was 0.01 to 0.1 µM; at NRAS Q61R, 0.1 to 1 µM; on KRAS Q61H it was 0.01 to 0.1 µM; at KRAS G13C, 0.01 to 0.1 µM. The IC50 is 0.01 to 0.1 µM against NRAS WT; 0.1 to 1 µM against KRAS G13D; below 0.01 µM against NRAS G12C; 0.01 to 0.1 µM on KRAS G12S; 0.01 to 0.1 µM at KRAS G12V; 0.01 to 0.1 µM at KRAS G12D. Further, the IC50 against NRAS Q61K was in the range of 0.1 to 1 µM. Moreover, the EC50 in the assay on AsPC-1 (K-Ras G12D) [2] is below 5 µM.
As to `CCn1c(-c2cccnc2[C@H](C)OC)c2c3cc(ccc31)-c1cc(O)cc(c1)C[C@H](NC(=O)[C@H](C(C)C)N(C)C(=O)CN(C)C(=O)[C@H]1N[C@@H]1C1COC1)C(=O)N1CCC[C@H](N1)C(=O)OCC(C)(C)C2` [Example 284], the IC50 is 0.01 to 0.1 µM against KRAS G12C; 1 to 10 µM in the assay with AsPC-1 (K-Ras G12D) [1]; 0.01 to 0.1 µM against KRAS WT; 0.1 to 1 µM at NRAS Q61R; 0.01 to 0.1 µM against KRAS Q61H; below 0.01 µM at KRAS G13C. Besides, the IC50 is 0.01 to 0.1 µM against NRAS WT; 0.01 to 0.1 µM at KRAS G13D; below 0.01 µM against NRAS G12C; 0.01 to 0.1 µM against KRAS G12S; 0.01 to 0.1 µM against KRAS G12V; 0.01 to 0.1 µM against KRAS G12D. Moreover, the IC50 against NRAS Q61K was in the range of 0.1 to 1 µM. Also, the EC50 in the assay on AsPC-1 (K-Ras G12D) [2] is below 5 µM.
